# Measurements published in ChEMBL document CHEMBL3885881, “DrugMatrix”.
# Species: Rattus norvegicus
# Test: DrugMatrix - Regimen: Daily Repeat
# Assay type: toxicity, organism-based, Sprague-Dawley
# Set-up: regimen Daily Repeat, gender Male, age 6-8 weeks
# Conditions: in vivo, iv, vehicle 100 % SALINE; for ABSOLUTE BASOPHIL / ABSOLUTE EOSINOPHIL / ABSOLUTE LYMPHOCYTE / ABSOLUTE MONOCYTE / ABSOLUTE SEGMENTED NEUTROPHIL / BASOPHIL / EOSINOPHIL / ERYTHROCYTE COUNT / HEMATOCRIT / HEMOGLOBIN / LEUKOCYTE COUNT / LYMPHOCYTE / MEAN CORPUSCULAR HEMOGLOBIN / MEAN CORPUSCULAR HEMOGLOBIN CONCENTRATION / MEAN CORPUSCULAR VOLUME / MONOCYTE / NEUTROPHIL / NUCLEATED RED BLOOD CELLS / PLATELET COUNT: tissue Blood; for ALANINE AMINOTRANSFERASE / ALBUMIN / ALKALINE PHOSPHATASE / ASPARTATE AMINOTRANSFERASE / BLOOD UREA NITROGEN / CARBON DIOXIDE / CHLORIDE / CHOLESTEROL / CREATINE PHOSPHOKINASE / CREATININE / GLUCOSE / LACTATE DEHYDROGENASE / LIPASE / PHOSPHORUS / POTASSIUM / SODIUM / TOTAL BILIRUBIN / TOTAL PROTEIN / URIC ACID: tissue Plasma
# [1] = 0 mg/kg, 72 h, dose level Control, time 3 day
# [2] = 0 mg/kg, 120 h, dose level Control, time 5 day
# [3] = 12 mg/kg, 72 h, dose level High, time 3 day
compound,measurement,setting,value
Cc1c(N)nc([C@H](CC(N)=O)NC[C@H](N)C(N)=O)nc1C(=O)N[C@H](C(=O)N[C@H](C)[C@@H](O)[C@H](C)C(=O)N[C@H](C(=O)NCCc1nc(-c2nc(C(=O)NCCC[S+](C)C)cs2)cs1)[C@@H](C)O)[C@@H](O[C@@H]1O[C@@H](CO)[C@@H](O)[C@H](O)[C@@H]1O[C@H]1O[C@H](CO)[C@@H](O)[C@H](OC(N)=O)[C@@H]1O)c1c[nH]cn1.[Br-] [BLEOMYCIN A2],ABSOLUTE BASOPHIL,[1],0 CELLS/uL
same,ABSOLUTE EOSINOPHIL,[1],33.67 CELLS/uL
same,ABSOLUTE LYMPHOCYTE,[1],12123.5 CELLS/uL
same,ABSOLUTE MONOCYTE,[1],243.5 CELLS/uL
same,ABSOLUTE SEGMENTED NEUTROPHIL,[1],1282.67 CELLS/uL
same,BASOPHIL,[1],0%
same,EOSINOPHIL,[1],0.33%
same,ERYTHROCYTE COUNT,[1],5.18 x10E6/uL
same,HEMATOCRIT,[1],32.63%
same,HEMOGLOBIN,[1],12.87 G/DL
same,LEUKOCYTE COUNT,[1],13.68 x10E3/uL
same,LYMPHOCYTE,[1],88.67%
same,MEAN CORPUSCULAR HEMOGLOBIN,[1],24.98 pg
same,MEAN CORPUSCULAR HEMOGLOBIN CONCENTRATION,[1],39.48 G/DL
same,MEAN CORPUSCULAR VOLUME,[1],63.23 fL
same,MONOCYTE,[1],1.83%
same,NEUTROPHIL,[1],9.17%
same,NUCLEATED RED BLOOD CELLS,[1],0.17 /100WBC
same,PLATELET COUNT,[1],1114.5 x10E3/uL
same,ALANINE AMINOTRANSFERASE,[1],46.17 u/L
same,ALBUMIN,[1],4.15 G/DL
same,ALKALINE PHOSPHATASE,[1],374.67 u/L
same,ASPARTATE AMINOTRANSFERASE,[1],89.33 u/L
same,BLOOD UREA NITROGEN,[1],14.83 mg/dL
same,CARBON DIOXIDE,[1],25.67 mmol/L
same,CHLORIDE,[1],101.17 MEQ/L
same,CHOLESTEROL,[1],63.5 mg/dL
same,CREATINE PHOSPHOKINASE,[1],494.67 u/L
same,CREATININE,[1],0.17 mg/dL
same,GLUCOSE,[1],163 mg/dL
same,LACTATE DEHYDROGENASE,[1],269.33 u/L
same,LIPASE,[1],10.67 u/L
same,PHOSPHORUS,[1],11.27 mg/dL
same,POTASSIUM,[1],5.85 MEQ/L
same,SODIUM,[1],141.68 MEQ/L
same,TOTAL BILIRUBIN,[1],0.18 mg/dL
same,TOTAL PROTEIN,[1],5.87 G/DL
same,URIC ACID,[1],1.28 mg/dL
same,ABSOLUTE BASOPHIL,[2],0 CELLS/uL
same,ABSOLUTE EOSINOPHIL,[2],24.67 CELLS/uL
same,ABSOLUTE LYMPHOCYTE,[2],11832.83 CELLS/uL
same,ABSOLUTE MONOCYTE,[2],279.67 CELLS/uL
same,ABSOLUTE SEGMENTED NEUTROPHIL,[2],1446.17 CELLS/uL
same,BASOPHIL,[2],0%
same,EOSINOPHIL,[2],0.17%
same,ERYTHROCYTE COUNT,[2],5.61 x10E6/uL
same,HEMATOCRIT,[2],35.02%
same,HEMOGLOBIN,[2],13.82 G/DL
same,LEUKOCYTE COUNT,[2],13.58 x10E3/uL
same,LYMPHOCYTE,[2],87.67%
same,MEAN CORPUSCULAR HEMOGLOBIN,[2],24.68 pg
same,MEAN CORPUSCULAR HEMOGLOBIN CONCENTRATION,[2],39.5 G/DL
same,MEAN CORPUSCULAR VOLUME,[2],62.42 fL
same,MONOCYTE,[2],2%
same,NEUTROPHIL,[2],10.17%
same,NUCLEATED RED BLOOD CELLS,[2],0 /100WBC
same,PLATELET COUNT,[2],1178.17 x10E3/uL
same,ALANINE AMINOTRANSFERASE,[2],52.83 u/L
same,ALBUMIN,[2],4.12 G/DL
same,ALKALINE PHOSPHATASE,[2],370 u/L
same,ASPARTATE AMINOTRANSFERASE,[2],100.5 u/L
same,BLOOD UREA NITROGEN,[2],15.17 mg/dL
same,CARBON DIOXIDE,[2],28.83 mmol/L
same,CHLORIDE,[2],101 MEQ/L
same,CHOLESTEROL,[2],69.5 mg/dL
same,CREATINE PHOSPHOKINASE,[2],488.67 u/L
same,CREATININE,[2],0.23 mg/dL
same,GLUCOSE,[2],165 mg/dL
same,LACTATE DEHYDROGENASE,[2],502.17 u/L
same,LIPASE,[2],11 u/L
same,PHOSPHORUS,[2],11.7 mg/dL
same,POTASSIUM,[2],5.85 MEQ/L
same,SODIUM,[2],142.45 MEQ/L
same,TOTAL BILIRUBIN,[2],0.18 mg/dL
same,TOTAL PROTEIN,[2],5.85 G/DL
same,URIC ACID,[2],1.43 mg/dL
same,ABSOLUTE BASOPHIL,[3],0 CELLS/uL
same,ABSOLUTE EOSINOPHIL,[3],0 CELLS/uL
same,ABSOLUTE LYMPHOCYTE,[3],10537 CELLS/uL
same,ABSOLUTE MONOCYTE,[3],346.67 CELLS/uL
same,ABSOLUTE SEGMENTED NEUTROPHIL,[3],2083 CELLS/uL
same,BASOPHIL,[3],0%
same,EOSINOPHIL,[3],0%
same,ERYTHROCYTE COUNT,[3],6.18 x10E6/uL
same,HEMATOCRIT,[3],38.57%
same,HEMOGLOBIN,[3],15.13 G/DL
same,LEUKOCYTE COUNT,[3],12.97 x10E3/uL
same,LYMPHOCYTE,[3],81.67%
same,MEAN CORPUSCULAR HEMOGLOBIN,[3],24.5 pg
same,MEAN CORPUSCULAR HEMOGLOBIN CONCENTRATION,[3],39.23 G/DL
same,MEAN CORPUSCULAR VOLUME,[3],62.37 fL
same,MONOCYTE,[3],2.67%
same,NEUTROPHIL,[3],15.67%
same,NUCLEATED RED BLOOD CELLS,[3],0 /100WBC
same,PLATELET COUNT,[3],1055.67 x10E3/uL
same,ALANINE AMINOTRANSFERASE,[3],38 u/L
same,ALBUMIN,[3],3.8 G/DL
same,ALKALINE PHOSPHATASE,[3],233.67 u/L
same,ASPARTATE AMINOTRANSFERASE,[3],110 u/L
same,BLOOD UREA NITROGEN,[3],10.33 mg/dL
same,CARBON DIOXIDE,[3],27.67 mmol/L
same,CHLORIDE,[3],100.33 MEQ/L
same,CHOLESTEROL,[3],56.33 mg/dL
same,CREATINE PHOSPHOKINASE,[3],923.67 u/L
same,CREATININE,[3],0.12 mg/dL
same,GLUCOSE,[3],136.67 mg/dL
same,LACTATE DEHYDROGENASE,[3],439.67 u/L
same,LIPASE,[3],9.67 u/L
same,PHOSPHORUS,[3],10.5 mg/dL
same,POTASSIUM,[3],5.86 MEQ/L
same,SODIUM,[3],140.77 MEQ/L
same,TOTAL BILIRUBIN,[3],0.13 mg/dL
same,TOTAL PROTEIN,[3],5.47 G/DL
same,URIC ACID,[3],1.3 mg/dL
